Measurements as given in patent US6437184B1, “Oxime compounds, their use, and intermediates for their production” (Sumitomo Chemical Company, Limited, priority 1997, dated 2002).
Where two headings read alike, the source gives them in different places.

How the values were obtained:
Type in all cases: in vivo
[1] = tested on: Musca domestica; assay: Insecticidal test against Musca domestica; details: 24 h
Protocol: In the bottom of a polyethylene cup having a diameter of 5.5 cm was placed a piece of filter paper having the same size. A 200-fold water dilution (500 ppm) of a test compound formulation obtained according to Formulation Example 1 was added dropwise at a volume of 0.7 ml on the filter paper, and about 30 mg of sucrose as a diet was uniformly placed thereon. Ten female adults of houseflies (Musca domestica) were set free in the cup, and the cup was kept covered. After 1 day, the survival of the adults was determined to determine the mortality.

[2] = tested on: Cydia pomonella; assay: Insecticidal test against Cydia pomonella; details: 168 h, 100 ppm water dilution, 0.2 ml on surface of artificial diet, eggs just before hatching, after 7 days
Protocol: A water dilution (100 ppm) of a test compound formulation obtained according to Formulation Example 1 was added dropwise at a volume of 0.2 ml and spread over the surface of an artificial diet having a weight of 3 g, which had been prepared in a 30 ml polyethylene cup. After air drying, placed in the cup was a piece of wax paper (about 2.5 cm square) having about 20 eggs which had been laid by Cydia pomonella and were just before hatching. Four pieces of such wax paper were used for each treatment. After 7 days, the mortality of the larvae was determined.

[3] = tested on: Helicoverpa armigera; assay: Insecticidal test against Helicoverpa armigera; details: 120 h, 100 ppm water dilution, cotton leaf fragment immersed 10 seconds, third-instar larvae, after 5 days
Protocol: A cotton leaf fragment (diameter, 5 cm) was immersed for 10 seconds Lin a water dilution (100 ppm) of a test compound formulation obtained according to Formulation Example 1. This fragment was taken out from the dilution, air dried, and placed in a polyethylene cup having a diameter of 5.5 cm. One third-instar larva of Helicoverpa armigera was set free in each cup. Ten larvae were used for each treatment. After 5 days, the mortality of the larvae was determined.

[4] = tested on: Plutella xylostella; assay: Insecticidal test against Plutella xylostella; details: 96 h
Protocol: To a water dilution (50 ppm) of a test compound formulation obtained according to Formulation Example 1 was added a spreading agent (New RINOU available from Nihon Noyaku K.K.) at a dilution ratio of 3000-fold. The dilution was sprayed over potted cabbages at the four to five leaf stage at a volume of 25 ml per pot. After the treated plants were air dried, ten third-instar larvae of Plutella xylostella were set free on each pot. After 4 days, the mortality was determined.

[5] = 500 ppm water dilution, 0.7 ml on filter paper with sucrose, female adults, after 1 day, read-out: mortality
[6] = 50 ppm water dilution sprayed over potted cabbages, 25 ml per pot, third-instar larvae, after 4 days, read-out: mortality

## CCON=Cc1cccc(COc2c(Cl)cc(OCC=C(Cl)Cl)cc2Cl)c1 [(378), 3-((2,6-dichloro-4-(3,3-dichloro-2-propenyloxy)phenoxy)methyl)benzaldehyde O-ethyloxime]
[1]; [5]
  mortality at 500 µg/mL: ≥ 80%
[2]
  mortality at 100 µg/mL: ≥ 80%

## C=CCON=Cc1ccc(OCCCOc2c(Cl)cc(OCC=C(Cl)Cl)cc2Cl)cc1 [(342), 4-(3-(2,6-dichloro-4-(3,3-dichloro-2-propenyloxy)phenoxy)propyloxy)benzaldehyde O-allyloxime]
[3]
  mortality at 100 µg/mL: ≥ 80%

## CCON=Cc1ccc(OCCCOc2c(Cl)cc(OCC=C(Cl)Cl)cc2Cl)cc1 [(288), 4-(3-(2,6-dichloro-4-(3,3-dichloro-2-propenyloxy)phenoxy)propyloxy)benzaldehyde O-ethyloxime]
[3]
  mortality at 100 µg/mL: ≥ 80%

## CCC(C)ON=Cc1ccc(CCOc2c(Cl)cc(OCC=C(Cl)Cl)cc2Cl)cc1 (centres unmarked) [(355), 4-(2-(2,6-dichloro-4-(3,3-dichloro-2-propenyloxy)phenoxy)ethyl)benzaldehyde O-sec-butyloxime]
[3]
  mortality at 100 µg/mL: ≥ 80%

## CC(COCCCCCOc1c(Cl)cc(OCC=C(Cl)Cl)cc1Cl)=NOC(=O)NC(C)(C)C [(180), 5-(2,6-dichloro-4-(3,3-dichloro-2-propenyloxy)phenoxy)pentyloxyacetone O-(N-tert-butylcarbamoyl)oxime]
[1]
  mortality at 500 µg/mL: ≥ 80%
[4]
  mortality at 50 µg/mL: ≥ 80%

## CC(C)(C)ON=CCOCCCCCOc1c(Cl)cc(OCC=C(Cl)Cl)cc1Cl [(14), 5-(2,6-dichloro-4-(3,3-dichloro-2-propenyloxy)phenoxy)pentyloxyacetaldehyde O-tert-butyloxime]
[3]
  mortality at 100 µg/mL: ≥ 80%

## CC(CC(C)C)=NOCCCCCOc1c(Cl)cc(OCC=C(Cl)Cl)cc1Cl [(564), 4-methyl-2-pentanone O-(5-(2,6-dichloro-4-(3,3-dichloro-2-propenyloxy)phenoxy)pentyl)oxime]
[3]
  mortality at 100 µg/mL: ≥ 80%

## C=CCON=Cc1ccc(COc2c(Cl)cc(OCC=C(Cl)Cl)cc2Cl)cc1 [(312), 4-(2,6-dichloro-4-(3,3-dichloro-2-propenyloxy)phenoxymethyl)benzaldehyde O-(2-propenyl)oxime]
[3]
  mortality at 100 µg/mL: ≥ 80%

## FC(F)(F)c1ccc(C=NOCCCCOc2c(Cl)cc(OCC=C(Cl)Cl)cc2Cl)cc1 [(529), 4-(trifluoromethyl)benzaldehyde O-(4-(2,6-dichloro-4-(3,3-dichloro-2-propenyloxy)phenoxy)butyl)oxime]
[3]
  mortality at 100 µg/mL: ≥ 80%

## ClC(Cl)=CCON=Cc1ccc(CCOc2c(Cl)cc(OCC=C(Cl)Cl)cc2Cl)cc1 [(358), 4-(2-(2,6-dichloro-4-(3,3-dichloro-2-propenyloxy)phenoxy)ethyl)benzaldehyde O-(3,3-dichloro-2-propenyl)oxime]
[3]
  mortality at 100 µg/mL: ≥ 80%

## CC(=NO)c1ccc(OCCCCCOc2c(Cl)cc(OCC=C(Cl)Cl)cc2Cl)cc1 [(334), 4′-(5-(2,6-dichloro-4-(3,3-dichloro-2-propenyloxy)phenoxy)-pentyloxy)acetophenone oxime]
[4]; [6]
  mortality at 50 µg/mL: ≥ 80%

## ClC(Cl)=CCOc1cc(Cl)c(OCCCCON=C2CCOCC2)c(Cl)c1 [(573), tetrahydro-4H-pyran-4-one O-(4-(2,6-dichloro-4-(3,3-dichloro-2-propenyloxy)phenoxy)butyl)oxime]
[4]; [6]
  mortality at 50 µg/mL: ≥ 80%

## ClC(Cl)=CCON=Cc1ccc(OCCCCOc2c(Cl)cc(OCC=C(Cl)Cl)cc2Cl)cc1 [(285), 4-(4-(2,6-dichloro-4-(3,3-dichloro-2-propenyloxy)phenoxy)butyloxy)benzaldehyde O-(3,3-dichloro-2-propenyl)oxime]
[4]; [6]
  mortality at 50 µg/mL: ≥ 80%

## ClC(Cl)=CCON=Cc1ccc(OCCOc2c(Cl)cc(OCC=C(Cl)Cl)cc2Cl)cc1 [(281), 4-(2-(2,6-dichloro-4-(3,3-dichloro-2-propenyloxy)phenoxy)-ethoxy)benzaldehyde O-(3,3-dichloro-2-propenyl)oxime]
[4]; [6]
  mortality at 50 µg/mL: ≥ 80%

## CCCCC(=NO)c1cccc(OCCCOc2c(Cl)cc(OCC=C(Cl)Cl)cc2Cl)c1 [(336), 3′-(3-(2,6-dichloro-4-(3,3-dichloro-2-propenyloxy)phenoxy)propyloxy)valerophenone oxime]
[4]; [6]
  mortality at 50 µg/mL: ≥ 80%

## CC(C)(C)ON=Cc1ccc(OCCCOc2c(Cl)cc(OCC=C(Cl)Cl)cc2Cl)cc1 [(291), 4-(3-(2,6-dichloro-4-(3,3-dichloro-2-propenyloxy)phenoxy)propyloxy)benzaldehyde O-t-butyloxime]
[3]
  mortality at 100 µg/mL: ≥ 80%

## FC(F)(F)c1ccc(C=NOCCCOc2c(Cl)cc(OCC=C(Cl)Cl)cc2Cl)cc1 [(524), 4-(trifluoromethyl)benzaldehyde O-(3-(2,6-dichloro-4-(3,3-dichloro-2-propenyloxy)phenoxy)propyl)oxime]
[4]; [6]
  mortality at 50 µg/mL: ≥ 80%

## CC(=NOCCOc1c(Cl)cc(OCC=C(Cl)Cl)cc1Cl)c1ccc(C(F)(F)F)cc1 [(549), 4′-(trifluoromethyl)acetophenone O-(2-(2,6-dichloro-4-(3,3-dichloro-2-propenyloxy)phenoxy)ethyl)oxime]
[2]
  mortality at 100 µg/mL: ≥ 80%

## CCC(C)ON=Cc1ccc(COc2c(Cl)cc(OCC=C(Cl)Cl)cc2Cl)cc1 (centres unmarked) [(329), 4-(2,6-dichloro-4-(3,3-dichloro-2-propenyloxy)phenoxy)methylbenzaldehyde O-sec-butyloxime]
[3]
  mortality at 100 µg/mL: ≥ 80%

## FC(F)(F)c1ccc(C=NOCCOc2c(Cl)cc(OCC=C(Cl)Cl)cc2Cl)cc1 [(550), 4-(trifluoromethyl)benzaldehyde O-(2-(2,6-dichloro-4-(3,3-dichloro-2-propenyloxy)phenoxy)ethyl)oxime]
[2]
  mortality at 100 µg/mL: ≥ 80%

## CC(C)Oc1ccc(C=NOCCCCOc2c(Cl)cc(OCC=C(Cl)Cl)cc2Cl)cc1 [(579), 4-isopropoxybenzaldehyde O-(4-(2,6-dichloro-4-(3,3-dichloro-2-propenyloxy)phenoxy)butyl)oxime]
[2]
  mortality at 100 µg/mL: ≥ 80%

## CC(C)CON=Cc1cccc(COc2c(Cl)cc(OCC=C(Cl)Cl)cc2Cl)c1 [(381), 3-((2,6-dichloro-4-(3,3-dichloro-2-propenyloxy)phenoxy)methyl)benzaldehyde O-iso-butyloxime]
[2]
  mortality at 100 µg/mL: ≥ 80%

## CC(=NOCCCCOc1c(Cl)cc(OCC=C(Cl)Cl)cc1Cl)C(C)(C)C [(562), 3,3-dimethyl-2-butanone O-(4-(2,6-dichloro-4-(3,3-dichloro-2-propenyloxy)phenoxy)butyl)oxime]
[3]
  mortality at 100 µg/mL: ≥ 80%

## CC(C)CON=Cc1ccc(CCCOc2c(Cl)cc(OCC=C(Cl)Cl)cc2Cl)cc1 [(382), 4-(3-(2,6-dichloro-4-(3,3-dichloro-2-propenyloxy)phenoxy)propyl)benzaldehyde O-iso-butyloxime]
[2]
  mortality at 100 µg/mL: ≥ 80%

## ClC(Cl)=CCON=CCCOc1c(Cl)cc(OCC=C(Cl)Cl)cc1Cl [(75), 3-(2,6-dichloro-4-(3,3-dichloro-2-propenyloxy)phenoxy)propionaldehyde O-(3,3-dichloro-2-propenyl)oxime]
[4]; [6]
  mortality at 50 µg/mL: ≥ 80%

## CC(C)(C)C=NOCCCCCOc1c(Cl)cc(OCC=C(Cl)Cl)cc1Cl [(545), trimethylacetaldehyde O-(5-(2,6-dichloro-4-(3,3-dichloro-2-propenyloxy)phenoxy)pentyl)oxime]
[1]; [5]
  mortality at 500 µg/mL: ≥ 80%
[3]
  mortality at 100 µg/mL: ≥ 80%

## ClC(Cl)=CCON=CCCCCOc1c(Cl)cc(OCC=C(Cl)Cl)cc1Cl [(17), 5-(2,6-dichloro-4-(3,3-dichloro-2-propenyloxy)phenoxy)pentanal O-(3,3-dichloro-2-propenyl)oxime]
[3]
  mortality at 100 µg/mL: ≥ 80%

## CC(=NOCCCCOc1c(Cl)cc(OCC=C(Cl)Cl)cc1Cl)c1ccc(C(F)(F)F)cc1 [(531), 4′-(trifluoromethyl)acetophenone O-(4-(2,6-dichloro-4-(3,3-dichloro-2-propenyloxy)phenoxy)butyl)oxime]
[3]
  mortality at 100 µg/mL: ≥ 80%

## ClC(Cl)=CCOc1cc(Cl)c(OCCCCCON=C2CCOCC2)c(Cl)c1 [(574), tetrahydro-4H-pyran-4-one O-(5-(2,6-dichloro-4-(3,3-dichloro-2-propenyloxy)phenoxy)pentyl)oxime]
[4]; [6]
  mortality at 50 µg/mL: ≥ 80%
[2]
  mortality at 100 µg/mL: ≥ 80%

## C=CCON=Cc1ccc(CCOc2c(Cl)cc(OCC=C(Cl)Cl)cc2Cl)cc1 [(357), 4-(2-(2,6-dichloro-4-(3,3-dichloro-2-propenyloxy)phenoxy)ethyl)benzaldehyde O-allyloxime]
[3]
  mortality at 100 µg/mL: ≥ 80%

## C=CCON=Cc1ccc(CCCOc2c(Cl)cc(OCC=C(Cl)Cl)cc2Cl)cc1 [(370), 4-(3-(2,6-dichloro-4-(3,3-dichloro-2-propenyloxy)phenoxy)propyl)benzaldehyde O-allyl oxime]
[4]; [6]
  mortality at 50 µg/mL: ≥ 80%
